Data as given in patent publication US7504415B2, “Therapeutic agent for glomerular disease” (Kowa Co., Ltd., priority 2001, dated 2009).

Experiments:
[1] = test system: Slc: Wistar rats; test: Acute toxicity test; type: in vivo, rat
Protocol: Slc: Wistar rats (5 male rats and 5 female rats, 6 weeks old, purchased from Japan SLC Co., Ltd.) were subjected to fasting overnight. After fasting, compound A which had been suspended in an aqueous 0.5% sodium carboxymethyl cellulose solution was perorally administered in a forced manner to each male rat (500 mg/kg) and each female rat (250 mg/kg).

[2] = test system: Human mensagial cells; test: Mensagial matrix (PIP) production inhibition test, TGF-β1-stimulated, ELISA; type: cell-based; conditions: TGF-β1 10 ng/mL stimulation, 72 hours culture, PIP by ELISA, read-out: PIP production inhibitory activity (IC50)
Protocol: (1) Culture and Storage of Human Mensagial Cells
Human mensagial cells (normal human mensagial cells, CryoNHMC, product of Sanko Junyaku Co., Ltd.) were cultured in MsGM medium (15 mL/flask) by use of two 75-cm^2 flasks (430720, CORNING). The medium was replaced with fresh medium every 2 to 3 days. Subsequently, the culture was scaled up to a 225-cm^2 flask (3000, COSTER) level, and three vials of passage 5 and 27 vials of passage 6 were prepared at a cell count of 5×10^6 cells/Cell Banker 1 mL/vial (430659, CORNING). The thus-cultured cell samples were stored in a container cooled by liquid nitrogen.
(2) Determination of Mansagial Matrix Production Inhibitory Activity
Cryopreserved human mensagial cells of passage 6 were revived and sown in a medium placed in a 75-cm^2 flask. The medium was replaced the next day, and incubation was continued for three more days. The thus-cultured cells were treated with 0.25% trypsin-0.02% EDTA. […] After completion of culturing, the PIP level of each culture liquid was determined through ELISA by use of a PIP determination kit (product of TAKARA). The percent inhibition (%) was calculated in accordance with the following equation, and the PIP production inhibitory activity (IC50 value) was derived from the percent inhibition. […]

[3] = test system: renal failure model (5/6 nephrectomized) rats; test: Renal failure model (5/6 nephrectomized) rats; type: in vivo, rat; conditions: 15 mg/kg perorally once a day
From the text: Male Wistar rats (10 weeks old, 300 to 350 g, purchased from Japan SLC Co., Ltd.) were anesthetized with pentobarbital, and the right kidney of each rat was extirpated. Subsequently, the left kidney was exposed. Under a stereoscopic microscope, two of the left renal artery branches (generally, one renal artery is separated into three branches) were ligated and one central branch was left intact, to thereby provide a 5/6 nephrectomized rat. When a renal artery branch is ligated, a portion controlled by the branch falls into ischemia, and such ischemic renal portion can be visually detected. The thus-produced renal failure models were evaluated in terms of increase in blood urea nitrogen level (BUN) one day after the ligation.
The rats were divided into three groups such that the BUN level (one day after ligation) of the groups were equalized, and compound A was administered to each rat of the groups. The groups consisted of a normal rat group (N=5); a 5/6 nephphrectomized and drug-untreated group (control: N=8); and a 5/6 nephrectomized and compound-A-administered group (15 mg/kg: N=8). […] The (total protein)/creatinine ratio (UP/Ucr) in a urine sample and the BUN level were determined on days 7, 14, 21, 28, and 35 after ligation.

[4] = test system: progressive anti-Thy-1 nephritic rat; test: Pharmacological test using progressive anti-Thy-1 nephritic rats; type: in vivo; conditions: 20 mg/kg perorally once/day, 10 weeks
Protocol: (1) Wistar female rats (5 weeks old, purchased from Japan SLC Co., Ltd.) were quarantined and acclimatized for four days, and used for the test. First, the right kidney of each rat was removed through flank incision under anesthesia with pentobarbital. Two weeks after removal of the right kidney, an anti-Thy-1 antibody (anti-mesangial-cell antibody/monoclonal antibody 1-22-3; purchased from Panafarm Laboratories Co., Ltd.) was intravenously administered (500 μg/rat) into the tail vein, whereby progressive anti-Thy-1 nephritis was induced. Immediately thereafter, compound A which had been suspended in an aqueous 0.5% sodium carboxymethyl cellulose solution was perorally administered via a peroral probe to each rat in a forced and continuous manner (20 mg/kg body weight, once/day, 10 weeks). After completion of 10 weeks' administration of compound A, urine was taken from each rat for 18 hours in a metabolic cage (Sugiyama Gen Co., Ltd.), and the total amount of protein excreted into the urine was determined.
(2) After completion of the urine analysis, the left kidney was extirpated from each rat, fixed in formalin, and embedded with paraffin. A thin slice obtained from the thus-treated kidney was stained with hematoxylin and eosin (HE), and observed under a stereoscopic microscope. […] The ratio was evaluated on the basis of the following classification. […]

monocalcium (+)-bis[(3R, 5S, 6E)-7-[2-cyclopropyl-4-(4-fluorophenyl)-3-quinolyl]-3,5-dihydroxy-6-heptenoate] [compound A]
death during observation period of 14 days ([1]; female rats, 250 mg/kg single peroral dose after overnight fasting): no case of death | death during observation period of 14 days ([1]; male rats, 500 mg/kg single peroral dose after overnight fasting): no case of death | IC50 [2]: 22.4 µM | blood urea nitrogen (BUN) level ([3]; after week 4, FIG. 4): significant decrease | (total protein)/creatinine ratio (UP/Ucr) in urine ([3]; weeks 7 and 8 after administration, vs drug-untreated group, FIG. 3): significantly decreases | total amount of protein excreted into urine (18 hours) ([4]; FIG. 1): significantly lowered | lesions occurring in the malpighian tubes and stroma (tubulointerstitial damage score, HE staining) ([4]; FIG. 2): significantly inhibited
